# Assay results taken from patent US20110033837A1 (priority 2007, published 2011).
# Assays:
# [1] = system: CXCR4-tropic virus strains; details: cited from earlier work
# [2] = system: dualtropic viruses that use CCR5 and CXCR4; details: human PBMC; cited from earlier work
# [3] = system: primary HIV-1 isolates; details: isolates P-31, P-41-0, P41-28 and P-51; IsnoR5 clone 2 cells; 1 μg/ml AMD 3100
# Description: Virus-containing supernatants, normalized to 5 ng/ml HIV-1 Gag p24, were titrated in the IsnoR5 clones in the absence and presence of 1 μg/ml AMD 3100. After 14 days, cell free supernatants tested for viral Gag protein by p24 antigen capture assay. The number of positive wells was used to determine the TCID50 of the original sample.
# Virus isolation was performed as previously described (Holtkamp et al., 2000) except that viral replication was detected using an antigen capture enzyme-linked immunosorbent assay (ELISA) for the HIV-1 Gag p24 core protein. Inactivated supernatants (0.2% Tween 20) were titrated on ELISA plates coated with the Gag-specific monoclonal antibody Ag3.0 (hybridoma kindly provided by Jon Allan, Southwest Foundation, San Antonio, Tex., USA). […] Captured protein was detected using pooled sera from HIV-1 positive individuals followed by a goat antihuman immunoglobulin G-peroxidase conjugate (Sigma-Aldrich, Taufkirchen, Germany). Virus levels were calculated by comparison with a standard HIV-1 supernatant of known p24 Gag concentration.
# Virus-containing supernatants were serially diluted in media and aliquoted (50 μl per well, six replicates per dilution) into U-well microtiter plates containing 2×10^5 of IsnoR5 clones 1 or 2 or 4.5×10^5 PBMC from healthy blood donors in 150 μl medium. […]
structure (smiles),measurement,setting,value
c1cc(CN2CCCNCCNCCCNCC2)ccc1CN1CCCNCCNCCCNCC1 [AMD 3100],Infection of cells by CXCR4-tropic virus strains,[1],preventing infection
same,Block of dualtropic viruses,[2],efficiently block
same,Replication of isolates in the presence of AMD 3100 (FIG. 5),[3],all were inhibited from replication
